Where “and” joins values, the source holds several entries; their conditions need not be identical. Equal entries are not always repeated.
Experiments:
[1] = system: myeloperoxidase (MPO) activity; assay: Myeloperoxidase assay on rat paw tissue; format: in vivo; settings: for MPO activity (unit mg^-1): 2f-induced rat paw oedema, paw tissue, individual animals (Figure 5i); for Myeloperoxidase (MPO) activity increased by 2f-LIGRLO-NH2: pre-treatment, 30 min
Description: Rat paw tissues were collected, snap-frozen with liquid N2, and stored at −80 °C. Samples were cut with a scalpel, weighed, and added to MPO buffer (50 mM potassium phosphate buffer, pH 6.0) to a concentration of 200 mg ml^−^1, before homogenising using zirconium oxide beads (1 and 2 mm, Next Advance, USA) and a Bullet Blender® homogeniser (Next Advance, USA). Homogenised tissues were diluted to 100 mg ml^−1 with MPO buffer containing 1% hexadecyl trimethylammonium bromide (Sigma-Aldrich, USA). Samples were then sonicated for 5 min, centrifuged at 13,000 × g for 10 min at 4 °C, and the clear supernatant for each sample was collected.

hPAR2 = biological target: T1, hPAR2 (Homo sapiens, UniProt P55085); assay: Schild and allosteric model analysis of Ca^2+ mobilisation in CHO-hPAR2 cells (2f-LIGRL-NH2 or trypsin); format: cell-based; settings: for linear Schild regression slope: Figure R1; for logα / logβ: operational model of allosterism
T1 sequence (P55085 26-397): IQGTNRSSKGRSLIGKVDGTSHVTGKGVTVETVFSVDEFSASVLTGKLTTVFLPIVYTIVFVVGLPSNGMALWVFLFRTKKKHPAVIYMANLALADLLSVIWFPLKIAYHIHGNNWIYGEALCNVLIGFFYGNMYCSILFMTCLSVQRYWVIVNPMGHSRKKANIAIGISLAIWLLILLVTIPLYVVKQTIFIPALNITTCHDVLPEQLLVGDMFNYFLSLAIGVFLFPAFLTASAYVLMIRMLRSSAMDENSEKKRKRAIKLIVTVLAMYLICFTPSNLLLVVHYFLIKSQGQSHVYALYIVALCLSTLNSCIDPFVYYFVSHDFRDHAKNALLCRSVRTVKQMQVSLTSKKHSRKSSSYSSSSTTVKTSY
Description: Cells were loaded with Fluo-8 NW calcium dye (AAT Bioquest) for 30 min at 37 °C before compounds in Hank’s balanced salt solution (HBSS, ThermoFisher Scientific) with 20 mM HEPES (ThermoFisher Scientific), 0.1% bovine serum albumin (BSA, Sigma) and 0.5% DMSO were added and simultaneously evaluated for changes in intracellular [Ca^2+] using FLIPR TETRA (Molecular Devices) to detect agonism. For each concentration, the difference between the maximum peak Ca^2+ response and baseline response is reported. […] Antagonism experiments were also carried out on 1321N1-PAR2[WT], 1321N1-PAR2[F154A], and 1321N1-PAR2[G157C] as described. Experiments with trypsin in 1321N1-hPAR2 cells were performed in the presence of 1 µM Vorapaxar (Chemtronica) to remove any interference of PAR1 activity. […] Antagonism experiments for CHO-hPAR2 and HT-29 cells were performed in 96-well plates at 30,000 cells/well. Cells were loaded with Fluo-3 AM calcium dye (Sigma-Aldrich) for 60 min at 37 °C in HBSS with 1% FBS, 0.2% pluronic acid, 20 mM HEPES and 2.5 mM probenecid prior to the addition of antagonist. The antagonist was pre-incubated for 60 min at 37 °C followed by the addition of bovine trypsin (30 nM) at EC80. Intracellular [Ca^2+] flux was measured using FLIPR TETRA (Molecular Devices) and the difference between the maximum peak Ca^2+ response and baseline response is reported.
Binding data were analysed using the One site – Fit Ki model in GraphPad Prism 8 (GraphPad Software) to determine binding affinity. Pharmacology in vitro potency data was analysed with a 4-parameter logistic fit using the equation y = Bottom + (Top − Bottom)/[…] where y is the response, x is the 10-logarithm of the drug concentration, Bottom is no response and Top is full response in GraphPad Prism 8 or Genedata Screener (Genedata). pEC50 and pIC50 data are presented as mean ± standard error of the mean (s.e.m.) derived from the number of independent experiments stated. Schild slope analysis was calculated using Graphpad Prism 8 Gaddum/Schild EC50 global fitting (shared model parameters between all data sets) competitive model. […] Schild slope quantifies the shifts in agonist response in the presence of antagonist, a Schild slope of 1 indicates the antagonist is competitive and extra-sum-of-squares F-test (p < 0.05) was used to compare the calculated Schild slope against a hypothetical Schild slope of 1. […] The relative activity was calculated using (EmaxEC50’)/(Emax’EC50) with the Hill slope help constant at 1. EC50’ and Emax’ denote the EC50 and Emax in the absence of allosteric modulator, while EC50 and Emax denote those measured in the presence of allosteric modulator. When the Hill slope = 1, the relative activity plot approaches an asymptote corresponding to the estimate of the γ value.

mast cells = assay: Immunohistochemistry, histamine release in rat paw; format: in vivo; settings: pre-treatment; 30 min
Description: Rat paw tissues were collected, fixed in 10% neutral-buffered formalin (Sigma-Aldrich) for 2 h at 4 °C, transferred into falcon tubes containing 25% sucrose in PBS and left overnight at 4 °C. Tissues were then embedded with Optimal Cutting Temperature compound (OCT, Sakura Finetek, USA) and stored at −80 °C before making cryo-sections for histological analysis. Frozen sections (5 µm) were made using a cryostat-microtome (Leica Biosystems, Germany). For mast cell staining, slides were briefly washed with distilled water before staining with 0.1% toluidine blue (Sigma-Aldrich, pH 2.5) for 3 min. Slides were then dehydrated and mounted in DPX mountant (Sigma-Aldrich, USA). For immunohistochemistry, slides were briefly rinsed with PBS to remove OCT. Except for tryptase staining, antigen retrieval was performed by incubating slides in citrate buffer (0.01 M, pH 6) at 95 °C for 20 min. They were then cooled down briefly and incubated with blocking medium (PBS, 0.1% Triton X-100, 10% horse serum) for 1 h at room temperature in a humidity chamber. Samples were incubated with primary antibody medium (PBS, 0.1% Triton X-100, 4% horse serum; 1:100 primary antibody including – histamine, neutrophil elastase or ED1 antibodies) overnight at 4 °C. […] Tryptase-, neutrophil elastase- and ED1-positive cells were quantified using FIJI/ImageJ 1.42q software, USA.

[2] = against 2f-LIGRL-NH2, Gaddum/Schild EC50 global fitting, CHO-hPAR2 cells
[3] = against trypsin, Gaddum/Schild EC50 global fitting, CHO-hPAR2 cells
[4] = 2f-LIGRL-NH2, Ca^2+ mobilisation

Row | Compound | MPO activity (unit mg^-1) [1] | Myeloperoxidase (MPO) activity increased by 2f-LIGRLO-NH2 [1] | γ value estimated from relative activity (hPAR2; 2f-LIGRL-NH2) | linear Schild regression slope (hPAR2; 2f-LIGRL-NH2, CHO-hPAR2 cells) | Schild slope (hPAR2; [2]) | Schild slope (hPAR2; [3]) | logα (hPAR2; [4]) | logβ (hPAR2; [4]) | logα (hPAR2; trypsin, Ca^2+ mobilisation) | logβ (hPAR2; trypsin, Ca^2+ mobilisation) | γ value estimated from relative activity (hPAR2; trypsin) | linear Schild regression slope (hPAR2; trypsin, CHO-hPAR2 cells) | histamine release (mast cells)
1 | C[C@@H](C1CCCCC1)n1c(-c2cc3c(cc2Br)OCO3)nc2cc(C(=O)Nc3ccc(C#N)cc3)ccc21 [AZ3451] | 0.2692 unit mg^-1 and 0.2802 unit mg^-1 and 0.295 unit mg^-1 and 0.3577 unit mg^-1 | reduced almost to baseline | 0.002 | 0.4 | 0.4 | 0.3 | −1.98 ± 0.11 | −0.28 ± 0.07 | −1.19 ± 0.07 | −0.66 ± 0.08 | 0.09 | 0.2 | blocked
2 | CCCc1cc(F)ccc1C(O)c1ncc[nH]1 (centres unmarked) [AZ8838] | 0.2682 unit mg^-1 and 0.2003 unit mg^-1 and 0.454 unit mg^-1 and 0.2121 unit mg^-1 and 0.4127 unit mg^-1 | reduced almost to baseline | – | 1.0 | 1.1 | 0.9 | – | – | – | – | – | 0.8 | blocked

Source: article PMC7747594, “Protease-activated receptor-2 ligands reveal orthosteric and allosteric mechanisms of receptor inhibition” (Communications Biology, 2020)
